Laboratory results from US20120034242A1, “CYTOKINE-EXPRESSING CELLULAR VACCINE COMBINATIONS” (BIOSANTE PHARMACEUTICALS, INC., priority 2003, published 2012).

How the values were obtained:
Format in all cases: in vivo, mice
B16F10 = B16F10 model: B16-GM vaccine plus Celebrex; details: single agent; preliminary results
Procedure: FIGS. 9A and 9B illustrate the results of a study in the B16F10 melanoma model wherein the effect of a cytokine-expressing cellular vaccine was evaluated in combination with Celebrex (Celecoxib: 50 mg/kg/day in the feed starting on Day −7). Mice were challenged on Day 0 with 1×10^5 live B16F10 cells at a dorsal location and were vaccinated on Day 3 with 1×10^6 irradiated dB16gmtd cells at a ventral location.

B16 tumor = assay: B16 melanoma model: B16-GM vaccine plus docetaxel
Procedure: FIG. 8A illustrates the results of a study in the B16F10 melanoma model wherein the effect of 3 IV injections of docetaxel (total dose 18 mg/kg) administered on days 5, 9, and 13 was evaluated with respect to the percentage of mice that survived.
FIG. 8B illustrates the study carried out to generate the data shown in FIGS. 8C and D. The study was performed in the B16F10 melanoma model and compared the efficacy of one cycle of a GM-CSF secreting tumor cell vaccine administration combined with one cycle of Taxotere administration to three cycles of vaccine plus three cycles of taxotere.
FIGS. 8C and 8D illustrate the results of a study in the B16F10 melanoma model (carried out as described in FIG. 8B) wherein the effect of a cytokine-expressing cellular vaccine was evaluated in combination with docetaxel (total dose 18 mg/kg) administered on days 5, 9, and 13. Administration of docetaxel given between bi-weekly vaccinations (three vaccinations total; three cycles) increased the median survival of B16 tumor-bearing mice from 31 days to 52 days when compared to three B16-GM vaccinations alone. […]
The combination of docetaxel and a GM-CSF-secreting B16F10 tumor cell (B16-GM) vaccine was evaluated in the B16 melanoma model. […]

[1] = system: ovalbumin-specific TCR transgenic T cells (OT-1); assay: B16 ovalbumin model: tracking of ovalbumin-specific TCR transgenic T cells (OT-1); details: data not shown
Description: B16.ova and B16.GM.ova tumors are B16 cells or B16 cells expressing GM-CSF that were modified to express membrane bound ovalbumin. Ovalbumin acts as a surrogate tumor associated antigen on the tumor cells used for challenge as well as on the vaccine cells. Ovalbumin-specific T cells are used to track “tumor specific” T cell responses in the presence or absence of cells expressing GM-CSF (B16.GM-ova) alone or in combination with another cancer therapeutic agent. An antibody specifically recognizing the T-cell receptor of the ovalbumin specific T-cells is used to follow these “tumor-specific” T-cells. This antibody can be used to monitor the expansion of these tumor-specific T-cells and their activation status following various vaccination regiments. In one exemplary experimental approach, mice received via adoptive transfer ovalbumin-specific T-cells on day −2, are challenged with B16F10.ova on day 0, are vaccinated with B16F10.GM-ova on day 3 and then treated with at least one additional cancer therapeutic agent such as taxotere on day 5 and 9 (6 mg/kg), followed by monitoring of OVA-specific T cells at various time points after vaccination.

Row | Compound | effect on B16F10 tumor size and overall survival (B16F10) | inhibiting B16 tumor growth (B16 tumor; monotherapy, three IV injections, total dose 18 mg/kg) | Median Survival (B16 tumor; one cycle: vaccine three days after challenge, docetaxel IV days 5, 9, 13 (total 18 mg/kg)) [days] | survival of ovalbumin-specific TCR transgenic T cells (OT-1) [1]
1 | Cc1ccc(-c2cc(C(F)(F)F)nn2-c2ccc(S(N)(=O)=O)cc2)cc1 [Celebrex, Celecoxib] | no effect |  |  | 
2 | CC(=O)O[C@@]12CO[C@@H]1C[C@H](O)[C@@]1(C)C(=O)[C@H](O)C3=C(C)[C@@H](OC(=O)[C@H](O)[C@@H](NC(=O)OC(C)(C)C)c4ccccc4)C[C@@](O)([C@@H](OC(=O)c4ccccc4)[C@H]21)C3(C)C [docetaxel] |  | ineffective | 24 | prolongs
